What all share (format): cell-based
Assay [1] has as its system U-937, a human histiocytic lymphoma cell line. As to the kind of experiment: In vitro growth inhibition, SRB assay, U937. Particulars: read-out: In vitro growth inhibition GI50 (± sd), U937. Here is the method: (§1) The anti-tumor activities of the D and L etherlipid were evaluated against A549, a human non-small cell lung carcinoma cell line; MCF 7, a human breast carcinoma line and MCF 7/adr, multi-drug resistant human breast carcinoma; were obtained from the DCT Tumor Repository (NCI-Frederick Cancer Research Facility, Frederick, Md.). U-937, a human histiocytic lymphoma cell line, was obtained from the American Type Culture Collection. Stock cultures of these human cell lines were maintained in RPMI 1640 tissue culture media (Life Technologies, Gaithersburg, Md.) supplemented with 10% heat inactivated fetal bovine serum (Life Technologies) and 10 mM HEPES (Life Technologies). Cultures were maintained in exponential growth in a humidified incubator with 5% CO2 and were passaged twice weekly. L1210 and L1210/vmdr, murine lymphocytic leukemias, (Yale University School of Medicine). L1210/vmdr, a selected line of L1210, was transfected with a plasmid (pHaMDR1/A) containing the mdr 1 gene.
(§2) The detailed methodology of the SRB assay is described elsewhere (2,3). […] The bound stain was solubilized with 100 ul of 10 mM Tris buffer (Sigma) and the optical density was read spectrophotometrically at 490 nm (Microplate Reader Model 3550-UV, Biorad, Hercules, Calif.). […] Percent growth was calculated as follows: (T−T0)/(C−T0)×100 where (T)=mean optical density of treated wells at a given drug concentration, (T0)=mean optical density of time zero wells, and (C)=mean optical density of control wells, or if T<T0 where cell killing has occurred, then percent cell death can be calculated as follows: (T−T0)/(T0)×100. By varying drug concentration, dose response curves were generated and the GI50 values were calculated. The GI50 values for each experiment were calculated using data obtained from three duplicate wells on two separate plates. The mean GI50 values and standard deviations were then calculated from the GI50's from each independent experiment.

Assay [2] relates to A549, a human non-small cell lung carcinoma cell line. Briefly: In vitro growth inhibition, Sulforhodamine B (SRB) assay, A549. Particulars: read-out: In vitro growth inhibition GI50 (± sd), A549. As for the experimental part:
as §1, §2

Assay [3] relates to L1210 murine lymphocytic leukemia. Briefly: In vitro growth inhibition, SRB assay, L1210. The conditions noted are these: read-out: In vitro growth inhibition GI50 (± sd), L1210. Here is the method: as §1, §2
The subject of assay [4] is L1210/vmdr murine lymphocytic leukemia (mdr 1 transfected). As to the kind of experiment: In vitro growth inhibition, SRB assay, L1210/vmdr. The conditions noted are these: for GI50: 72 hrs treatment, read-out: In vitro growth inhibition GI50 (± sd), L1210/vmdr. As for the experimental part: as §1
(§3) The detailed methodology of the SRB assay is described elsewhere (2,3). Briefly, 96-well microtiter plates were inoculated with 100 ul of the above cell lines at optimal cell densities, 3500-15,000 cells/well, in medium (RPMI 1640 with L-glutamine (Mediatech, Herndon, Va.)) supplemented with 10% fetal bovine serum (Life Technologies) for all cell lines. The plates were then incubated for 24 hours at 37° C., 100% humidity, and 5% CO2. After the 24 hour incubation, 100 μl of medium was added to the designated time zero plates, then the plates containing adherent cell lines were acid fixed with 50 ul of 50% trichloroacetic acid (wt/vol) (Sigma, St. Louis, Mo.) and refrigerated at 4° C. for 1 hour (the suspension cell lines were acid fixed with 80% trichloroacetic acid). The supernatant was discarded and the plates were rinsed 6 times with water and air dried. […] The bound stain was solubilized with 100 ul of 10 mM Tris buffer (Sigma) and the optical density was read spectrophotometrically at 490 nm (Microplate Reader Model 3550-UV, Biorad, Hercules, Calif.). […] Percent growth was calculated as follows: (T−T0)/(C−T0)×100 where (T)=mean optical density of treated wells at a given drug concentration, (T0)=mean optical density of time zero wells, and (C)=mean optical density of control wells, or if T<T0 where cell killing has occurred, then percent cell death can be calculated as follows: (T−T0)/(T0)×100. By varying drug concentration, dose response curves were generated and the GI50 values were calculated. The GI50 values for each experiment were calculated using data obtained from three duplicate wells on two separate plates. The mean GI50 values and standard deviations were then calculated from the GI50's from each independent experiment.

The subject of assay [5] is MCF 7, a human breast carcinoma line. Briefly: In vitro growth inhibition, SRB assay, MCF7. The conditions noted are these: 72 hrs treatment, read-out: In vitro growth inhibition GI50 (± sd), MCF7. As for the experimental part:
as §1, §2

Assay [6] concerns Lewis Lung. Briefly: In vitro growth inhibition, SRB assay, Lewis Lung. The conditions noted are these: 72 hrs treatment, read-out: In vitro growth inhibition GI50 (± sd), Lewis Lung. As for the experimental part:
as §3, with “dried. Then the test compound was added (100 ul aliquots) to the remaining (non-fixed) plates at 2 times the predetermined highest concentration and serially diluted across the plates. Growth control wells received an additional 100 ul of medium.” for “dried.”

Assay [7] concerns MCF 7/adr, multi-drug resistant human breast carcinoma. Briefly: In vitro growth inhibition, SRB assay, MCF7/adr. Particulars: 72 hrs treatment, read-out: In vitro growth inhibition GI50 (± sd), MCF7/adr. As for the experimental part:
as §1, §2

In assay [8] the test system is platelets in dog whole blood. Briefly: Platelet aggregation response in whole blood (impedance aggregometer), dog blood. As for the experimental part: (§4) The platelet aggregation effect of the liposomes in the whole blood of various mammals was evaluated using a CHRONO-LOG Dual Chamber Whole Blood Aggregometer Model 560, according to the following protocol:
(§5) Venous blood was collected using 3.8% sodium citrate in a Vacutainer. Dilution ratio is 1 to 9 (citrate solution: blood). The effect of D and L etherlipid and liiposmes containing them on aggregation of platelets from rats, dogs, monkeys and humans was tested.
(§6) Immediately following collection the blood was mix by gentle inversion (maintain at room temperature). Prewarm 500 ul saline in disposable plastic cuvettes. Add 500 ul whole blood or PRP. Add disposable siliconized mini stir bar. Warm diluted blood 5 min at 37° C. prior to testing. Add test samples to aggregation chambers and insert impedance probes.
(§7) Platelet aggregation response was determined by increased resistance using an impedance electrode in a platelet suspension. Resistance measurements were taken 6-8 minutes after addition of the test article to 1 ml whole blood or platelet rich plasma (PRP).

The test system of assay [9] is platelets in rat whole blood. As to the kind of experiment: Platelet aggregation response in whole blood (impedance aggregometer), rat blood. Here is the method: as §4, §5, §6, §7
The test system of assay [10] is platelets in human whole blood. As to the kind of experiment: Platelet aggregation response in whole blood (impedance aggregometer), human blood. Here is the method:
as §4, §5, §6, §7

Assay [11] concerns PAF binding sites on dog blood platelets. As to the kind of experiment: Platelet aggregation response in dog whole blood with and without CV-6209. The conditions noted are these: PAF alone, concentration 0.05 μM. As for the experimental part:
as §4, §6, §7
To further investigate the platelet aggregation response triggered by the L-ether lipid in dog whole blood, the effect of a compound (CV-6209) that binds PAF binding sites on dog blood platelets was studied.

Setting [12] is: Homo sapiens, U-937, 72 hrs treatment.
[13] abbreviates: Homo sapiens, A549, 72 hrs treatment.
The mark [14] stands for this setting: Mus musculus, L1210, 72 hrs treatment.

The values that follow come from patent US6667053B1, “D and L etherlipid stereoisomers and liposomes” (Elan Pharmaceuticals, Inc., priority 1996, dated 2003).

Where two headings read alike, the source gives them in different places.

Take `CCCCCCCCCCCCCCCCCCOC[C@@H](COP(=O)([O-])OCC[N+](C)(C)C)OC` [D-EL, 3-O-octadecyl-2-O-methyl-sn-glycero-1-phosphocholine]: the GI50 was 1.41 ± 0.29 µM in [1] (setting [12]); 7.96 ± 0.57 µM in [2] (setting [13]); 3.6 ± 1.59 µM in [3] (setting [14]); 4.87 ± 0.77 µM in assay [4] (Mus musculus); 14.6 ± 5.92 µM in assay [5] (Homo sapiens, MCF7a); 25.4 ± 0.95 µM in assay [6] (Lewis lung carcinoma). The GI50 in [7] (Homo sapiens, NCI/ADR-RES) was found to be 25.1 ± 1.69 µM. In addition, the “activity against L1210/vmdr compared to L-EL and the racemate” value in assay [4] (72 hrs) is reported as “slight but statistically significant greater activity”.
Regarding `Nc1ncnc2c1ncn2[C@@H]1O[C@H](COP(=O)(O)OP(=O)(O)O)[C@@H](O)[C@H]1O` [ADP], in assay [8] (concentration 20 μM), the “Dog Blood Response” value is 4.0 Ω. In assay [9] (concentration 20 μM), the “Rat Blood Response” value is 2.0 Ω. Also, in assay [10] (concentration 20 μM), the “Human Blood Response” value is on record as 6.3 Ω.
Consider “1-O-2-acetyl-sn-glycero-3-phosphocholine [PAF]”, for which the “Dog Blood Response” value in [8] (concentration 0.05 μM) was 14.8 Ω; in assay [11] it was 23.5 Ω. In addition, the “Rat Blood Response” value in [9] (concentration 0.05 μM) is given as 0 Ω. The “Human Blood Response” value in [10] (concentration 0.05 μM) is 6.0 Ω.
For the compound collagen, the “Dog Blood Response” value in assay [8] (concentration 20 μg/μL) is recorded as 12 Ω. Besides, in assay [9] (concentration 20 μg/μL), the “Rat Blood Response” value is given as 34.1 Ω. Besides, the “Human Blood Response” value in assay [10] (concentration 20) is 36 Ω.
Regarding `CCCCCCCCCCCCCCCCCCOC[C@H](COP(=O)([O-])OCC[N+](C)(C)C)OC` [L-EL, 1-O-octadecyl-2-O-methyl-sn-glycero-3-phosphocholine], the GI50 in [1] (setting [12]) was 1.53 ± 0.42 µM; in assay [2] (setting [13]) it was 9.07 ± 0.39 µM; in [3] (setting [14]) it was 4.77 ± 0.41 µM; in assay [4] (Mus musculus), 8.77 ± 1.47 µM; in assay [5] (Homo sapiens, MCF7a), 18.6 ± 4.57 µM; in assay [6] (Lewis lung carcinoma), 29.1 ± 2.05 µM. In addition, the GI50 in assay [7] (Homo sapiens, NCI/ADR-RES) came to 27.9 ± 2.1 µM.
Regarding `CCCCCCCCCCCCCCCCCCOCC(COP(=O)([O-])OCC[N+](C)(C)C)OC` (racemic) [rac-EL], the GI50 was 1.5 ± 0.22 µM in assay [1] (72 hrs treatment); 8.36 ± 0.67 µM in assay [2] (72 hrs treatment); 4.18 ± 1.38 µM in assay [3] (72 hrs treatment); 6.09 ± 2.15 µM in assay [4]; 15.9 ± 6.41 µM in [5]; 27.1 ± 1.98 µM in assay [6]. Further, the GI50 in assay [7] is 27.8 ± 0.3 µM.
